Laboratory results taken from patent US20220033784A1 (priority 2020, published 2022).
Substitutions are numbered along the chain they refer to. In names and notes the source's numbering stands.

Assays:
[1] = tested on: HH cells (IL-2 CD122/CD132 (β/γ) receptor complex); assay: pSTAT5 ELISA in HH cells; assay type: cell-based
Procedure: (§1) The ability of the IL-2 variants to activate HH cells and iTregs was measured by monitoring relative changes in phosphorylated STAT5 (pSTAT5) in response to treatment of the cells with the IL-2 variants. pSTAT5 is known to be a downstream consequence of IL-2 signaling. HH T cells (ATCC CRL-2105) are a line of T cells that lack the alpha chain of the IL-2 receptor complex, but that contain the beta and gamma chains of the IL-2 receptor complex. iTreg cells were prepared from Fresh Leuko Paks obtained from […] Technologies (CAT #70500.1, Donor #D001003551).
(§2) For IL-2 activation, the HH cells and iTreg cells were plated at 2*10e6 cells/well in 50 ul serum-free RPMI 1640 media (Gibco), and allowed to rest at 37° C. After resting, cells were treated the IL-2 molecules listed above, and cells were then pelleted by centrifugation.
(§3) Following treatment with the IL-2 molecules, cell induction status was evaluated by the InstantOne ELISA pSTAT5 detection kit (Invitrogen).

[2] = tested on: iTreg cells (IL-2 CD25/CD122/CD132 (α/β/γ) receptor complex); assay: pSTAT5 ELISA in iTreg cells; assay type: cell-based; details: pSTAT5 level 50% of maximum, InstantOne ELISA; read-out: EC50 iTreg cell
Procedure: as §1, §2, §3

CD8 T cells [3] = assay: pSTAT5 flow cytometry in hPBMCs: CD8 T cells; assay type: cell-based, human
Procedure: (§4) In this experiment, the ability of the IL-2 variants to activate CD8 T cells, NK cells, and Treg cells was measured by monitoring relative changes in pSTAT5 in response to treatment of the cells with the IL-2 variants. The IL-2 variants tested in this experiment were each fused to a human IgG Fc domain as described in Example 15. […]; Blood from healthy volunteers was taken and hPBMCs were isolated using a ficoll-paque (GE Healthcare) gradient, washed with PBS to remove platelets, and cleared of red blood cells using ACK lysis buffer (Gibco). Cells were then plated at 1*10e6 cells/well in 90 uL serum-free RPMI 1640 media (Gibco) and allowed to rest for 2-4 hours at 37° C. After resting, cells were treated the IL-2 molecules listed above (10 uL), at the indicated concentrations for 20 minutes at 37° C., and 25 uL 20% PFA was immediately added with gentle pipetting. Cells were then pelleted by centrifugation and aspirated (400 RCF, 7 minutes).
(§5) Phosflow Perm Buffer III (BD Biosciences) was added (200 uL), and the cells were mixed gently by pipetting up and down once to prevent clumping. Cells were then washed twice with 200 uL FACS buffer followed by pelleting by centrifugation (400 RCF, 7 minutes). Cells were in resuspended in 200 uL FACS buffer and incubated with the antibodies in Table D and Table E per standard procedure then suspended in 200 uL FACS buffer for FACS analysis. Data was analyzed using FlowJo v10 software.

NK cells [4] = assay: pSTAT5 flow cytometry in hPBMCs: NK cells; assay type: cell-based, human
Procedure: as §4, §5

Treg cells [5] = assay: pSTAT5 flow cytometry in hPBMCs: Treg cells; assay type: cell-based, human; details: pSTAT5 MFI in hPBMCs, 20 minutes at 37° C.; read-out: EC50 Treg cell
Procedure: as §4, §5

CD8 T cells [6] = assay: In vivo expansion of CD8 T cells (spleen immunophenotyping); design: species or system mice; details: 0.5, 1, or 2 mg/kg daily for 4 days SC; spleens day 3
Procedure: (§6) Mice were randomized into groups to receive one of the molecules listed above or PBS control. The treatment groups were as follows: PBS; Fc-IL2; Fc-IL2v; […]; Immunophenotyping was conducted on day 3 after the first treatment (day 0) by collecting spleens from each group.

NK cells [7] = assay: In vivo expansion of NK cells (spleen immunophenotyping); design: species or system mice; details: 0.5, 1, or 2 mg/kg daily for 4 days SC; spleens day 3
Procedure: as §6

Treg cells [8] = assay: In vivo expansion of Treg cells (spleen immunophenotyping); design: species or system mice; details: 0.5, 1, or 2 mg/kg daily for 4 days SC; spleens day 3
Procedure: as §6

B16F10 cells = assay: Tolerability and tumor growth inhibition in B16F10-bearing mice (Example 21); assay type: in vivo, mouse (C57/BL6)
From the text: On day 0 of the experiment, female C57/BL6 mice were subcutaneously implanted in the upper thigh with approximately 500,000 B16F10 cells, which had been freshly thawed from a single, low-passage vial (of 1*10^7 cells) and cultured for the minimum time required to establish sufficient cells for implantation.
On day 5 of the experiment, mice were randomized into groups to receive one of the molecules listed above or control. […] Tumor volumes, body weight, and animal survival were tracked throughout the course of the experiment. Animals were sacrificed once tumors reached approximately 2000 mm^3 or 2 weeks post treatment.

[9] = biological target: T1, mouse intermediate-affinity IL-2R (IL-2Rβ + IL-2Rγ) on murine splenocytes (CD8+ T cells and NK cells) (mouse) (UniProt P16297)
T1 sequence 1: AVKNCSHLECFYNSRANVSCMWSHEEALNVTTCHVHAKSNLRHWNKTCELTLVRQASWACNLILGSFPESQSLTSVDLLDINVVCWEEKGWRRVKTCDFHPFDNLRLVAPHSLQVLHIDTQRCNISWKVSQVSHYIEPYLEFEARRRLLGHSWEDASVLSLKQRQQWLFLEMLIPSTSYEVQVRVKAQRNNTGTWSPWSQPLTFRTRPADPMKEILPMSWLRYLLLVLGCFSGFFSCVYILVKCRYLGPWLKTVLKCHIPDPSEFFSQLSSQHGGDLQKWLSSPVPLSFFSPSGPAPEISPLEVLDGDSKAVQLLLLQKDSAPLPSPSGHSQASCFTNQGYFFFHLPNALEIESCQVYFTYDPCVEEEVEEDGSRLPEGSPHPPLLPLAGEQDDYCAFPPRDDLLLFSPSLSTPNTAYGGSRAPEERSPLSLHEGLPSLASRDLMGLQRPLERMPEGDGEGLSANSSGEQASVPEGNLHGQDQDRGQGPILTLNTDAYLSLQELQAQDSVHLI
T1 sequence 2: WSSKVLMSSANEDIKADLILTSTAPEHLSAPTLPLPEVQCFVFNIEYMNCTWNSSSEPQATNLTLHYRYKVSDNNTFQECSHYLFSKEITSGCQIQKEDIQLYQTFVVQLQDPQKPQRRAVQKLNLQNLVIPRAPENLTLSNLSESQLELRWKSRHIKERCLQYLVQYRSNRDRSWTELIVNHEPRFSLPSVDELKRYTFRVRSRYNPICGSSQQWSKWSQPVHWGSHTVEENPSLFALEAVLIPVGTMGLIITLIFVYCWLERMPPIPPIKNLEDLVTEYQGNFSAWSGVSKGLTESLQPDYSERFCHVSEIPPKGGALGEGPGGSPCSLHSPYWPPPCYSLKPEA

[10] = tested on: Treg cells (CD3+CD4+CD25+ Foxp3+); assay type: cell-based, mouse (C57BL/6); details: protein from supernatants of virus-infected HeLa cells, 15 minutes incubation
[11] = biological target: T2, human intermediate-affinity IL-2 receptor complex, IL-2 CD122/CD132 (β/γ), on cells (human, UniProt P14784 27-551; P31785 23-369); assay: cell-based or functional assay
T2 sequence (looked up) 1: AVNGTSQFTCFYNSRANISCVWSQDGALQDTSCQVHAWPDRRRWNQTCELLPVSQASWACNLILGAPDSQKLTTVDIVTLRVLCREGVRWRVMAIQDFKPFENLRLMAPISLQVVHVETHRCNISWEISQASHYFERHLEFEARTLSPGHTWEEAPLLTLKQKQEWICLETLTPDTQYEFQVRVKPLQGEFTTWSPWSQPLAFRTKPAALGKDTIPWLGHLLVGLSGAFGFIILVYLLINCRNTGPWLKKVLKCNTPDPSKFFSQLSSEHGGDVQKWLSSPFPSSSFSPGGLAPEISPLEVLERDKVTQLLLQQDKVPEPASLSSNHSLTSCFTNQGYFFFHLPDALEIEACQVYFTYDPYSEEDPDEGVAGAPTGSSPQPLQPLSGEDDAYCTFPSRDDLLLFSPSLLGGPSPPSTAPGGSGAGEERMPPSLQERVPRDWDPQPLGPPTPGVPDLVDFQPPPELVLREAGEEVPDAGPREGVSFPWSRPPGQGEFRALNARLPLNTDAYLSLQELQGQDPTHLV
T2 sequence (looked up) 2: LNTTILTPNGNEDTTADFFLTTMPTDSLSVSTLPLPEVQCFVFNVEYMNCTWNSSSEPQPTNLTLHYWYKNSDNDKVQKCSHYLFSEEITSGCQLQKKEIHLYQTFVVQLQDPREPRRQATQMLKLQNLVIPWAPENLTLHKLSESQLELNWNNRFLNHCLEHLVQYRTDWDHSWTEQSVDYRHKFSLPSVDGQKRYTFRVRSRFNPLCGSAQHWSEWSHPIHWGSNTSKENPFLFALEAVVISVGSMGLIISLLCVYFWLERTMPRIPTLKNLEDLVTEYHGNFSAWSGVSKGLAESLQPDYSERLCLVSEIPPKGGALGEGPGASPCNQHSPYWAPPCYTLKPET

[12] = biological target: T3, human high-affinity IL-2 receptor complex, IL-2 CD25/CD122/CD132 (α/β/γ), on cells (human, UniProt P01589 22-272; P14784 27-551; P31785 23-369); assay: cell-based or functional assay
T3 sequence (looked up) 1: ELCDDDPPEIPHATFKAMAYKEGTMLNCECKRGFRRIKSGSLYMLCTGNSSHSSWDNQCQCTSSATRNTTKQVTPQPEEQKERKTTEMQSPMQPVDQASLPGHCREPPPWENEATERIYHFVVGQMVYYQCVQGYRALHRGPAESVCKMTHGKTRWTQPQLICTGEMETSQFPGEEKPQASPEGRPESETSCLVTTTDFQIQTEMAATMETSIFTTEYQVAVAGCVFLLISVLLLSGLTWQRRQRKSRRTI
T3 sequence (looked up) 2: T2 sequence (looked up) 1
T3 sequence (looked up) 3: T2 sequence (looked up) 2

Fc-IL2-K43N:Y45T
Selectivity HH/iTreg ([1]; higher value = greater selectivity for HH cells): 3.86 × 10^−3 | EC50 ([1]; pSTAT5 level 50% of maximum, InstantOne ELISA, read-out: EC50 HH T cell): 166 nM | EC50 [2]: 0.64 nM | Selectivity CD8/Treg (CD8 T cells [3]; larger numbers = greater selectivity for CD8 T cells over Treg cells): 0.42 | EC50 (CD8 T cells [3]; pSTAT5 MFI in hPBMCs, 20 minutes at 37° C., read-out: EC50 CD8 T cell): 57.6 nM | Selectivity NK/Treg (NK cells [4]; larger numbers = greater selectivity for NK cells over Treg cells): 3.8 | EC50 (NK cells [4]; pSTAT5 MFI in hPBMCs, 20 minutes at 37° C., read-out: EC50 NK cell): 6.37 nM | EC50 (Treg cells [5]): 24.2 nM | expansion of CD8 T cells in vivo (CD8 T cells [6]): promoted the expansion | expansion of NK cells in vivo (NK cells [7]): promoted the expansion | proliferation of Treg cells in vivo (Treg cells [8]): modest increase in Treg proliferation | surviving mice (B16F10 cells; 1 mg/kg SC on days 5, 6, 7, 8, groups of 15, day 12 post first treatment): 7/15 | tolerability in mice compared with Fc-IL2 and Fc-IL2v (B16F10 cells; 1 mg/kg SC on days 5-8): better tolerated

human IL-2 glycovariant hIL-2gv1 (R38N, L40T, K43N, Y45T), secreted by virus-infected HeLa cells (from UniProt P60568 21-153) (ligand)
EC50 (read off the curve), pSTAT5 MFI, murine splenocyte NK cells [9]: 20 ng/mL

human IL-2 glycovariant 2 hIL-2gv2 (K43N, Y45T, L72N, Q74T), secreted by virus-infected HeLa cells (from UniProt P60568 21-153) (ligand)
EC50 (read off the curve), pSTAT5 MFI, murine splenocyte NK cells [9]: 20 ng/mL

B1: IL-2gv1 (protein)
chain: APTSSSTKKTQLQLEHLLLDLQMILNGINNYKNPKLTNMTTFNFTMPKKATELKHLQCLEEELKPLEEVLNLAQSKNFHLRPRDLISNINVIVLELKGSETTFMCEYADETATIVEFLNRWITFCQSIISTLT
activity on Treg cells (concentration potency at inducing pSTAT5) compared to wild-type IL-2 [10]: reduced activity on Treg cells

B2: IL-2gv2 (protein)
chain: B1 chain with N38R, T40L, L72N, Q74T
activity on Treg cells (concentration potency at inducing pSTAT5) compared to wild-type IL-2 [10]: reduced activity on Treg cells

B3: Fc-IL2-T41N:K43T-E62N:K64T (Fc fusion)
chain: GGGGSGGGGSAPTSSSTKKTQLQLEHLLLDLQMILNGINNYKNPKLTRMLNFTFYMPKKATELKHLQCLEENLTPLEEVLNLAQSKNFHLRPRDLISNINVIVLELKGSETTFMCEYADETATIVEFLNRWITFCQSIISTLT
EC50 (read off the curve), pSTAT5 MFI in NK cells of hPBMC [11]: ~6 nM | EC50 (read off the curve), pSTAT5 MFI in Treg cells of hPBMC [12]: ~20 nM

B4: Fc-IL2-T41N:K43T-L72N:Q74T (Fc fusion)
chain: B3 chain with N72E, T74K, L82N, Q84T
EC50 (read off the curve), pSTAT5 MFI in NK cells of hPBMC [11]: ~6 nM | EC50 (read off the curve), pSTAT5 MFI in Treg cells of hPBMC [12]: ~20 nM
